Source: PMC9598282 (Antibiotics, 2022)
In brackets after ≈: the same amount, converted by molar mass. Several values for one entry are separate records, joined by “and”; a condition that tells them apart may be missing. Equal entries are not always repeated. Bridge positions count the residues as written; N and C are the ends. Square brackets hold non-standard residues; d marks the D form. Peptide text beside a SMILES is read from it. * marks the point of attachment. X1 = CC[C@H](C)CCCCC(=O)*; Dab = NCC[C@H](N)C(=O)O

Columns and labels:
P. aeruginosa PA 107092 = assay: MIC, broth microdilution; assay type: cell-based, Pseudomonas aeruginosa; settings: β-lactamase harboring isolate
Protocol: (§1) For the preparation of the bacterial solution, overnight grown culture was diluted in 0.85% saline solution, adjusted to 0.5 McFarland turbidity and further diluted in Mueller–Hinton broth for inoculation to a final concentration of 5 × 10^5 colony forming units/mL (CFU/mL). The agents were serially diluted two-fold in a 96-well plate, and equal volumes of bacterial solution were subsequently added to the designated wells. The well consisting of bacterial solution served as the positive control, while the well containing only media served as the negative control. The plate was then incubated at 37 °C for 18 h. After incubation, an Emax Plus microplate reader (Molecular Devices, Union City, CA, USA) was used to measure the optical density (OD) at a wavelength of 590 nm to confirm the turbidity. The antibacterial activity corresponded to the MIC, which is defined as the lowest concentration of the agent necessary to inhibit visible bacterial growth.

P. aeruginosa PA 88949 = assay: MIC, broth microdilution; assay type: cell-based, Pseudomonas aeruginosa; settings: β-lactamase harboring isolate
Protocol: as §1

P. aeruginosa PA 108590 = assay: MIC, broth microdilution; assay type: cell-based, Pseudomonas aeruginosa; settings: β-lactamase harboring isolate
Protocol: as §1

P. aeruginosa PA 86052 = assay: MIC, broth microdilution; assay type: cell-based, Pseudomonas aeruginosa; settings: β-lactamase harboring isolate
Protocol: as §1

P. aeruginosa PA 109084 = assay: MIC, broth microdilution; assay type: cell-based, Pseudomonas aeruginosa; settings: β-lactamase harboring isolate
Protocol: as §1

P. aeruginosa 101243 = assay type: cell-based, Pseudomonas aeruginosa; settings: colistin-resistant isolate
Protocol: as §1

P. aeruginosa 114228 = assay type: cell-based, Pseudomonas aeruginosa; settings: colistin-resistant isolate
Protocol: as §1

P. aeruginosa P259-96918 = assay type: cell-based, Pseudomonas aeruginosa; settings: colistin-susceptible MDR isolate
Protocol: as §1

[1] = system: P. aeruginosa P262-101856; assay type: cell-based, Pseudomonas aeruginosa; settings: colistin-susceptible MDR isolate
Protocol: as §1

[2] = system: P. aeruginosa P264-104354; assay type: cell-based, Pseudomonas aeruginosa; settings: colistin-susceptible MDR isolate
Protocol: as §1

E. cloacae 121187 = assay type: cell-based, Enterobacter cloacae; settings: colistin-resistant isolate
Protocol: as §1

E. cloacae 118564 = assay type: cell-based, Enterobacter cloacae; settings: colistin-resistant isolate
Protocol: as §1

E. coli 107115 = assay type: cell-based, Escherichia coli; settings: colistin-susceptible MDR isolate
Protocol: as §1

E. coli 94474 = assay type: cell-based, Escherichia coli; settings: colistin-resistant isolate
Protocol: as §1

E. coli 94393 = assay type: cell-based, Escherichia coli; settings: colistin-resistant isolate
Protocol: as §1

E. coli ATCC 25922 = assay: microbe, parasite or virus in culture; assay type: cell-based, Escherichia coli
Outline: (§2)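 Antibiotic and guanidinylated polymyxin adjuvant were two-fold serially diluted across perpendicular axes, combined with bacterial suspension and incubated 18 h at 37 °C. Turbidity was read as OD590. FIC index is the sum of each agent's MIC in combination divided by its MIC alone: ≤0.5 synergy, 0.5–4 additivity, >4 antagonism.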

A. baumannii ATCC 17978 [3] = assay: microbe, parasite or virus in culture; assay type: cell-based, Acinetobacter baumannii
Outline: as §2

P. aeruginosa PAO1 = assay: microbe, parasite or virus in culture; assay type: cell-based, Pseudomonas aeruginosa
Outline: as §2

A. baumannii ATCC 17978 [4] = assay type: cell-based, Acinetobacter baumannii; settings: wild-type
Protocol: as §1

A. baumannii AB027 = assay type: cell-based, Acinetobacter baumannii; settings: colistin-susceptible MDR isolate
Protocol: as §1

A. baumannii 92247 = assay type: cell-based, Acinetobacter baumannii; settings: colistin-resistant isolate
Protocol: as §1

A. baumannii AB031 = assay type: cell-based, Acinetobacter baumannii; settings: colistin-susceptible MDR isolate
Protocol: as §1

A. baumannii LAC-4 = assay type: cell-based, Acinetobacter baumannii; settings: colistin-susceptible MDR isolate
Protocol: as §1

A. baumannii 110193 = assay type: cell-based, Acinetobacter baumannii; settings: colistin-susceptible MDR isolate
Protocol: as §1

K. pneumoniae 113250 = assay type: cell-based, Klebsiella pneumoniae; settings: colistin-resistant isolate
Protocol: as §1

K. pneumoniae 113254 = assay type: cell-based, Klebsiella pneumoniae; settings: colistin-resistant isolate
Protocol: as §1

[5] = agent alone, one value per checkerboard plate

In the case of `CC[C@H](C)CCCCC(=O)N[C@@H](CCN)C(=O)N[C@H](C(=O)N[C@@H](CCN)C(=O)N[C@H]1CCNC(=O)[C@H]([C@@H](C)O)NC(=O)[C@H](CCN)NC(=O)[C@H](CCN)NC(=O)[C@H](CC(C)C)NC(=O)[C@@H](CC(C)C)NC(=O)[C@H](CCN)NC1=O)[C@@H](C)O` [Colistin, colistin] (X1-[Dab]T[Dab][Dab][Dab][dL]L[Dab][Dab]T; lactam 4-C (inferred); N-terminus assumed), the MIC (P. aeruginosa PA 107092) is reported as 0.5 µg/mL (≈ 0.428 µM), the MIC (P. aeruginosa PA 88949) is reported as 1 µg/mL (≈ 0.855 µM) and the MIC (P. aeruginosa PA 108590) is reported as 1 µg/mL (≈ 0.855 µM). The MIC (P. aeruginosa PA 86052) was 1 µg/mL (≈ 0.855 µM), the MIC (P. aeruginosa PA 109084) was 0.5 µg/mL (≈ 0.428 µM) and the MIC (P. aeruginosa 101243) was 1024 µg/mL (≈ 876 µM). The MIC (P. aeruginosa 114228) was 4 µg/mL (≈ 3.42 µM), the MIC (P. aeruginosa P259-96918) was 0.5 µg/mL (≈ 0.428 µM) and the MIC [1] was 2 µg/mL (≈ 1.71 µM). For the same compound, the MIC [2] was 1 µg/mL (≈ 0.855 µM), the MIC (E. cloacae 121187) was over 128 µg/mL and the MIC (E. cloacae 118564) was over 128 µg/mL. The MIC (E. coli 107115) was 0.125 µg/mL (≈ 0.107 µM), the MIC (E. coli 94474) was 16 µg/mL (≈ 13.7 µM) and the MIC (E. coli 94393) was 4 µg/mL (≈ 3.42 µM). For the same compound, the “Absolute MIC of antibiotic at 2 μg/mL GCol” value (E. coli ATCC 25922) was 0.125 µg/mL, the “Absolute MIC of antibiotic at 2 μg/mL GPMB” value (E. coli ATCC 25922) was 0.0313 µg/mL and the “FIC index antibiotic + GCol” value (E. coli ATCC 25922) was 1.016. For the same compound, the “FIC index antibiotic + GPMB” value (E. coli ATCC 25922) was 0.25, the MIC alone (E. coli ATCC 25922; [5]) was 0.125 µg/mL and 0.25 µg/mL and the Fold-potentiation of antibiotic (E. coli ATCC 25922; at 2 μg/mL GCol) was 1. For the same compound, the Fold-potentiation of antibiotic (E. coli ATCC 25922; at 2 μg/mL GPMB) was 8, the “Absolute MIC of antibiotic at 2 μg/mL GCol” value (A. baumannii ATCC 17978 [3]) was 0.25 µg/mL and the “FIC index antibiotic + GPMB” value (A. baumannii ATCC 17978 [3]) was 1.016. It also gave an MIC alone (A. baumannii ATCC 17978 [3]; [5]) of 0.25 µg/mL, a Fold-potentiation of antibiotic (A. baumannii ATCC 17978 [3]; at 2 μg/mL GCol) of 1 and a Fold-potentiation of antibiotic (A. baumannii ATCC 17978 [3]; at 2 μg/mL GPMB) of 1. For the same compound, the “Absolute MIC of antibiotic at 4 μg/mL GCol” value (P. aeruginosa PAO1) was 0.5 µg/mL, the “Absolute MIC of antibiotic at 4 μg/mL GPMB” value (P. aeruginosa PAO1) was 1 µg/mL and the MIC alone (P. aeruginosa PAO1; [5]) was 0.5 µg/mL and 1 µg/mL. The Fold-potentiation of antibiotic (P. aeruginosa PAO1; at 4 μg/mL GCol) was 1, the Fold-potentiation of antibiotic (P. aeruginosa PAO1; at 4 μg/mL GPMB) was 1 and the MIC (A. baumannii ATCC 17978 [4]) was 0.5 µg/mL (≈ 0.428 µM). For the same compound, the MIC (A. baumannii AB027) was 0.25 µg/mL (≈ 0.214 µM), the MIC (A. baumannii 92247) was 4 µg/mL (≈ 3.42 µM) and the MIC (A. baumannii AB031) was 0.25 µg/mL (≈ 0.214 µM). It also gave an MIC (A. baumannii LAC-4) of 0.125 µg/mL (≈ 0.107 µM), an MIC (A. baumannii 110193) of 0.5 µg/mL (≈ 0.428 µM) and an MIC (K. pneumoniae 113250) of 256 µg/mL (≈ 219 µM). It also gave an MIC (K. pneumoniae 113254) of 256 µg/mL (≈ 219 µM).
